Data on 21 compounds can be found in US11384065B2, “Heterocyclic compound as CSF-1R inhibitor and use thereof” (MEDSHINE DISCOVERY INC., priority 2018, dated 2022).

In one data set the target is CSF-1R (Homo sapiens (Human), UniProt P07333). Briefly: In vitro inhibitory activity on CSF-1R kinase (33P-ATP filter-binding, Reaction Biology Corporation). To be noted: CSF-1R 2.5 nM, filter-binding method. It counts as biochemical. Here is the method:
Experimental Example 1: In Vitro Inhibitory Activity of the Compounds of the Present Invention on CSF-1R in Terms of Enzymology The compounds of the present invention for experiments were made in house, and their structural formulas were shown in the preparation examples of each compound. The experimental tests were conducted at Reaction Biology Corporation in the United States, and the experimental results were provided by the company. Experimental Reagents: Necessary reaction buffer: 20 mM hydroxyethylpiperazine ethanesulfonic acid (pH 7.5), 10 mM magnesium chloride, 1 mM EGTA, 0.02% Brij35, 0.02 mg/mL bovine serum albumin, 0.1 mM Na3VO4, 2 mM DTT, 1% DMSO. The necessary cofactors were added separately to the CSF-1R kinase reaction. Enzyme: the concentration of CSF-1R was 2.5 nM Treatment with the Compounds: The compound to be tested was formulated with 100% DMSO into a solution with a specific concentration, and serial dilution was performed with DMSO through the intelligent pipetting assistant Integra Viaflo Assist. Experimental Procedure: […] All necessary cofactors were added to the above reaction buffer; CSF-1R kinase was added to the above matrix solution and shaken gently; Using acoustic technology (Echo550; nanoliter range), a solution of the compound in DMSO was added to the above kinase reaction mixture, and the reaction solution was incubated at room temperature for 20 minutes; ^33P-ATP (specific activity, 10 μCi/μl) was added to the above kinase reaction mixture to initiate the reaction; The reaction solution was incubated at room temperature for 2 hours; The kinase activity was detected by the filter-binding method; The kinase activity was the ratio of the remaining kinase in the test sample to the vehicle (DMSO) group. IC50 values and profiles were obtained using Prism (GraphPad software).

The nature of data set [1]: Pharmacokinetic study after intravenous injection and oral administration (plasma, LC-MS/MS). It counts as in vivo, rats. Conditions: for AUC(0-t) / C0 / Vd / clearance / half-life / Cmax: male, SD, rat, plasma. The source says:
Example 2 Pharmacokinetic Study on Mice and Rats (PK)
The purpose of this experiment was to study the pharmacokinetics of the test article in the plasma of male C57BL/6J mice and SD rats after intravenous injection and oral administration.
The animals were randomly divided into two groups with 2 males in each group. The compounds were formulated into prescribed preparations. Preparations for intravenous injection were clear solutions, and oral preparations could be clear or homogeneous suspensions.
Whole blood samples were collected from the jugular vein puncture or saphenous vein of the animals 5 minutes, 15 minutes, 30 minutes, 1 hour, 2 hours, 4 hours, 6 hours, and 8 hours after administration. The whole blood sample was added to the centrifuge tube containing anticoagulant, and centrifuged at 3000 g for 15 minutes at 4° C. The supernatant of plasma was taken, frozen quickly on dry ice, and then stored in a −70° C.±10° C. refrigerator until LC-MS/MS analysis.
WinNonlin™ Version 6.3.0 (Pharsight, Mountain View, Calif.) pharmacokinetic software was used to process the plasma drug concentration data of the compounds with a non-compartmental model. The peak concentration (Cmax), peak time (Tmax) and quantifiable end time were obtained directly from the blood drug concentration-time profile.
The following pharmacokinetic parameters were calculated using the log-linear trapezoid method: Plasma clearance rate (CL), volume of distribution (Vd), elimination phase half-life (T1/2), average residence time of drug in the body from 0 to the end time point (MRT0-last), average residence time of the drug in the body from 0 to infinite time (MRT0-inf), area under the time-plasma concentration curve from 0 to the end time point (AUC0-last), area under the time-plasma concentration curve from 0 to infinite time (AUC0-inf) and bioavailability (F), C0 was the initial concentration.

One may read the IC50 as the concentration that gives 50% inhibition. A word on the AUC(0-t): it is the area under the concentration-time curve up to a stated or last time point. Read a high AUC(0-t) as high exposure. As a reminder, the half-life is how long it takes for the measured level to halve. Low values mean fast loss, high ones slow loss. By Cmax is commonly meant the peak of the concentration-time curve.

CSF-1R, sequence (P07333 20-972): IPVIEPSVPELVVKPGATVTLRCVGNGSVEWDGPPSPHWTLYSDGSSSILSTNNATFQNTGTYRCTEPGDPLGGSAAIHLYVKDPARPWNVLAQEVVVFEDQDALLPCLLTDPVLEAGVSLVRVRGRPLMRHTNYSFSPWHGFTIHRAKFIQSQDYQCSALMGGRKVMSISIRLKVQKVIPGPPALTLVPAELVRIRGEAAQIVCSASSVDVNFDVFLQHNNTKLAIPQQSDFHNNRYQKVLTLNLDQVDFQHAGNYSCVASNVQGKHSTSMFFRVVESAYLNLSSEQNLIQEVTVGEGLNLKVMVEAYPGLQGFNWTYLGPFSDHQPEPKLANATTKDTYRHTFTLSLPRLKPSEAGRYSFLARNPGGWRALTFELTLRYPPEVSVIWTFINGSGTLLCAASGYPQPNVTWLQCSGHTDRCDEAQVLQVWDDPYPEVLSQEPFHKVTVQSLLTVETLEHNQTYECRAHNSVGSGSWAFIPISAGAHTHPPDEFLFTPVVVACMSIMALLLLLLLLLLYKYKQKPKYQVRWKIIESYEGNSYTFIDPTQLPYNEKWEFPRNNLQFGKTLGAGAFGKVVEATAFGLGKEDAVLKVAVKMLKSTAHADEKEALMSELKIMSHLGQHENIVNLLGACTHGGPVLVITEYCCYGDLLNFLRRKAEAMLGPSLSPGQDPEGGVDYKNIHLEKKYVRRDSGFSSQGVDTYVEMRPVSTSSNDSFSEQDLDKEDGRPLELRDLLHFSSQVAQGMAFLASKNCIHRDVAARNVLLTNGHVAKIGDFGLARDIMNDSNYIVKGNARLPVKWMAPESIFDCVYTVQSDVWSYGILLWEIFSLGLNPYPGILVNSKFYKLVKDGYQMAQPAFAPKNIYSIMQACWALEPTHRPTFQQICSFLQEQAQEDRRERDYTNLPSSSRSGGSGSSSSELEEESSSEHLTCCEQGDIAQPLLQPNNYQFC

On CSF-1R, `Cc1cc(NCc2ccc(C(F)(F)F)nc2)ncc1-c1ccc(N(C)C)c2c1CNC2=O` [Compound 1] returned an IC50 of 3.06 nM.
At CSF-1R, `Cc1cc(NCc2ccc(C(F)(F)F)nc2)ncc1-c1ccc(N)c2c1CNC2=O` [Compound 2] gave an IC50 of 1.55 nM.
On to `CC(=O)Nc1ccc(-c2cnc(NCc3ccc(C(F)(F)F)nc3)cc2C)c2c1C(=O)NC2` [Compound 3], for which the IC50 on CSF-1R is 24.5 nM. This IC50 is about 16-fold higher than that of the compound before.
The same measure, in the same setting: with `CNc1ccc(-c2cnc(NCc3ccc(C(F)(F)F)nc3)cc2C)c2c1C(=O)NC2` [Compound 4] the figure was 1.27 nM; with `CNc1ccc(-c2cnc(Nc3ccc(OC4CC4)nc3)cc2C)c2c1C(=O)NC2` [Compound 5], 1.68 nM.
At CSF-1R, `CNc1ccc(-c2cnc(Nc3ccc(C4(C#N)CC4)nc3)cc2C)c2c1C(=O)NC2` [Compound 6] returned an IC50 of 5.01 nM.
At CSF-1R, `CCOc1ccc(Nc2cc(C)c(-c3ccc(NC)c4c3CNC4=O)cn2)cn1` [Compound 7] had an IC50 of 1.87 nM.
`CNc1ccc(-c2cnc(Nc3ccc(OC(F)F)nc3)cc2C)c2c1C(=O)NC2` [Compound 8] yielded an IC50 on CSF-1R of 4.98 nM.
Compound `CNc1ccc(-c2cnc(Nc3ccc(N(C)C)nc3)cc2C)c2c1C(=O)NC2` [Compound 9] registered an IC50 at CSF-1R of 1.41 nM.
Turning to `CNc1ccc(-c2cnc(Nc3cnc(C4CC4)nc3)cc2C)c2c1C(=O)NC2` [Compound 10], the IC50 on CSF-1R was 2.61 nM. In addition, the F in data set [1] (PO (10 mpk)) is reported as 106%. Besides, in data set [1] (1 mg/kg, IV (1 mpk)), the AUC(0-t) was 18.7 µM·h, the C0 came out at 6.29 µM, the Vd turned out to be 0.495 L/kg and the clearance worked out at 2.31 mL/min/kg. The half-life in data set [1] (1 mg/kg, IV (1 mpk)) was 2.53 h. In data set [1] (10 mg/kg, PO (10 mpk)), this compound displayed an AUC(0-t) of 198 µM·h and a Cmax of 33 µM.
Consider `CNc1ccc(-c2cnc(Nc3ccc(C4CC4)nn3)cc2C)c2c1C(=O)NC2` [Compound 11], for which, at CSF-1R, the IC50 worked out at 4.71 nM.
Turning to `CNc1ccc(-c2cnc(Nc3cnc(C4CC4)cn3)cc2C)c2c1C(=O)NC2` [Compound 12], the IC50 at CSF-1R worked out at 1.89 nM.
Take `CNc1ccc(-c2cnc(Nc3ncc(C4CC4)cn3)cc2C)c2c1C(=O)NC2` [Compound 13]: the IC50 on CSF-1R came to 3.78 nM.
At CSF-1R, `CNc1ccc(-c2cnc(Nc3ccc(C4CC4)cn3)cc2C)c2c1C(=O)NC2` [Compound 14] returned an IC50 of 2.5 nM.
The compound `CNc1ccc(-c2cnc(Nc3ccc(C4CC4)nc3)cc2C)c2c1C(=O)NC2` [Compound 15] came in with an IC50 at CSF-1R of 0.82 nM.
On CSF-1R, `CNc1ccc(-c2cnc(Nc3cnc(OC4CC4)nc3)cc2C)c2c1C(=O)NC2` [Compound 16] returned an IC50 of 2.49 nM.
As for `CNc1ccc(-c2cnc(Nc3ccc(OC4CC4)cn3)cc2C)c2c1C(=O)NC2` [Compound 17], the IC50 at CSF-1R was found to be 4.15 nM.
In turn, `CNc1ccc(-c2cnc(Nc3ccc(OC4CC4)nn3)cc2C)c2c1C(=O)NC2` [Compound 18] returned an IC50 at CSF-1R of 3.43 nM.
`CNc1ccc(-c2cnc(Nc3cnc(OC4CC4)cn3)cc2C)c2c1C(=O)NC2` [Compound 19]: the IC50 at CSF-1R amounted to 2.55 nM. This IC50 and that of the compound before are within 1.5-fold of each other.
On the same count and under the same terms, the value for `CNc1ccc(-c2cnc(Nc3ccn(C4CC4)c(=O)c3)cc2C)c2c1C(=O)NC2` [Compound 20] was 12.1 nM.
Take `COc1ccc(-c2ccc(NC(=O)Nc3cccc(C)c3)cc2)c2c1C(=O)NC2` [Control compound, reference compound]: the F in data set [1] (PO (10 mpk)) was found to be 3.92%. For the same compound, in data set [1] (1 mg/kg, IV (1 mpk)), the AUC(0-t) amounted to 0.918 µM·h, the C0 was found to be 3.72 µM, the Vd came out at 1.48 L/kg and the clearance came out at 46.7 mL/min/kg. This compound also showed a half-life in data set [1] (1 mg/kg, IV (1 mpk)) of 0.92 h. Besides, in data set [1] (10 mg/kg, PO (10 mpk)), the AUC(0-t) was determined as 0.333 µM·h and the concentration peaked (Cmax) at 0.104 µM.
